Reference: US20260240869A1, “ANTIPSEUDOMONAL FUSIDIC ACID COMPOUNDS” (priority 2022, published 2026)

Legend:
[1] = system: clinical isolates of P. aeruginosa; assay: MIC against panel of clinical isolates of P. aeruginosa; assay type: cell-based, Pseudomonas aeruginosa; conditions: for MIC: Pseudomonas aeruginosa
Method: (§1) Antimicrobial Susceptibility Tests. Susceptibility testing was performed in biological triplicate, using the microdilution broth method as outlined by the Clinical and Laboratory Standards Institute. Bacteria were cultured with cation-adjusted Meuller-Hinton broth (Sigma-Aldrich; catalogue number: 90922) or Luria-Bertani (LB) broth (Lennox) in round-bottom 96-well plates (Corning; catalogue number: 3788).

[2] = system: FA resistance mutants of P. aeruginosa PAO1 A6; assay: MIC in FA-resistant mutants; assay type: cell-based, Pseudomonas aeruginosa; conditions: mutants generated in PAO1 A6
Method: as §1
Selection ofresistant mutants. Resistant mutants were selected using the large inoculum method. […] Colonies were visible after incubating at 37° C. for 72 h.

CC(=O)O[C@H]1C[C@@]2(C)[C@@H](C[C@@H](O)[C@H]3[C@@]4(C)CC[C@@H](O)[C@@H](C)[C@@H]4CC[C@@]32C)/C1=C(\CCC=C(C)C)C(=O)O/N=C(\N)CNCCCNCCCNCCCN [FA prodrug, (3R, 4S,5S,8S,9S,10S,11R,13R,14S,16S,Z)-17-((Z)-1,14-diamino-22-methyl-17-oxo-16-oxa-4,8,12,15-tetraazatricosa-14,21-dien-18-ylidene)-3,11-dihydroxy-4,8,10,14-tetramethylhexadecahydro-1H-cyclopenta[a]phenanthren-16-yl acetate]
8 µg/mL: MIC ([1]; AR Bank Isolate # 0231) | MIC ([1]; AR Bank Isolate # 0234) | MIC ([1]; AR Bank Isolate # 0235) | MIC ([1]; AR Bank Isolate # 0239) | MIC ([1]; AR Bank Isolate # 0242) | MIC ([1]; AR Bank Isolate # 0246) | MIC ([1]; AR Bank Isolate # 0248) | MIC ([1]; AR Bank Isolate # 0772) | MIC ([1]; Carle Isolate ID # Cl-02) | MIC ([1]; Carle Isolate ID # Cl-03) | MIC ([1]; Carle Isolate ID # Cl-05) | MIC ([1]; Carle Isolate ID # Cl-06) | MIC ([1]; Carle Isolate ID # Cl-07) | MIC ([1]; Carle Isolate ID # Cl-08) | MIC ([1]; Carle Isolate ID # Cl-09) | MIC ([1]; Carle Isolate ID # Cl-11) | MIC ([1]; Carle Isolate ID # Cl-12) | MIC ([1]; Carle Isolate ID # Cl-14) | MIC ([1]; Carle Isolate ID # Cl-15) | MIC ([1]; Carle Isolate ID # Cl-19) | MIC ([1]; Cubist Strain ID # 996) | MIC ([1]; Cubist Strain ID # 997) | MIC ([1]; Cubist Strain ID # 998) | MIC ([1]; Cubist Strain ID # 999) | MIC ([1]; Cubist Strain ID # 2242) | MIC ([1]; Cubist Strain ID # 2244) | MIC ([1]; Other strains (ref.) 1727)
64-256 ×: improved activity relative to FA against 75 clinical isolates ([1]; FIG. 5c)
32 µg/mL: MIC ([1]; AR Bank Isolate # 0254) | MIC ([1]; Cubist Strain ID # 1590) | MIC ([1]; Cubist Strain ID # 1591) | MIC ([1]; Cubist Strain ID # 1592)
several fold change: MIC fold change in FA-resistant strains [2]
16 µg/mL: MIC ([1]; AR Bank Isolate # 0054) | MIC ([1]; AR Bank Isolate # 0064) | MIC ([1]; AR Bank Isolate # 0090) | MIC ([1]; AR Bank Isolate # 0092) | MIC ([1]; AR Bank Isolate # 0095) | MIC ([1]; AR Bank Isolate # 0100) | MIC ([1]; AR Bank Isolate # 0103) | MIC ([1]; AR Bank Isolate # 0110) | MIC ([1]; AR Bank Isolate # 0229) | MIC ([1]; AR Bank Isolate # 0230) | MIC ([1]; AR Bank Isolate # 0232) | MIC ([1]; AR Bank Isolate # 0233) | MIC ([1]; AR Bank Isolate # 0236) | MIC ([1]; AR Bank Isolate # 0237) | MIC ([1]; AR Bank Isolate # 0240) | MIC ([1]; AR Bank Isolate # 0241) | MIC ([1]; AR Bank Isolate # 0243) | MIC ([1]; AR Bank Isolate # 0244) | MIC ([1]; AR Bank Isolate # 0245) | MIC ([1]; AR Bank Isolate # 0250) | MIC ([1]; AR Bank Isolate # 0252) | MIC ([1]; AR Bank Isolate # 0265) | MIC ([1]; AR Bank Isolate # 0763) | MIC ([1]; AR Bank Isolate # 0767) | MIC ([1]; AR Bank Isolate # 0769) | MIC ([1]; Carle Isolate ID # Cl-04) | MIC ([1]; Carle Isolate ID # Cl-10) | MIC ([1]; Carle Isolate ID # Cl-13) | MIC ([1]; Cubist Strain ID # 1000) | MIC ([1]; Cubist Strain ID # 1001) | MIC ([1]; Cubist Strain ID # 1174) | MIC ([1]; Cubist Strain ID # 1175) | MIC ([1]; Cubist Strain ID # 1176) | MIC ([1]; Cubist Strain ID # 1280) | MIC ([1]; Cubist Strain ID # 1282) | MIC ([1]; Cubist Strain ID # 1283) | MIC ([1]; Cubist Strain ID # 1284) | MIC ([1]; Cubist Strain ID # 1586) | MIC ([1]; Cubist Strain ID # 1905) | MIC ([1]; Cubist Strain ID # 1906) | MIC ([1]; Cubist Strain ID # 2243) | MIC ([1]; Other strains (ref.) 1113)
